The record followed here is ChEMBL document CHEMBL5465560, “Selectivity Literature for EUbOPEN Chemogenomic Library” (2024).

Some results are limits rather than exact numbers.

Test [1] deals with T1, Tyrosine-protein kinase JAK3 (Homo sapiens) (UniProt P52333).
T1 sequence (whole entry): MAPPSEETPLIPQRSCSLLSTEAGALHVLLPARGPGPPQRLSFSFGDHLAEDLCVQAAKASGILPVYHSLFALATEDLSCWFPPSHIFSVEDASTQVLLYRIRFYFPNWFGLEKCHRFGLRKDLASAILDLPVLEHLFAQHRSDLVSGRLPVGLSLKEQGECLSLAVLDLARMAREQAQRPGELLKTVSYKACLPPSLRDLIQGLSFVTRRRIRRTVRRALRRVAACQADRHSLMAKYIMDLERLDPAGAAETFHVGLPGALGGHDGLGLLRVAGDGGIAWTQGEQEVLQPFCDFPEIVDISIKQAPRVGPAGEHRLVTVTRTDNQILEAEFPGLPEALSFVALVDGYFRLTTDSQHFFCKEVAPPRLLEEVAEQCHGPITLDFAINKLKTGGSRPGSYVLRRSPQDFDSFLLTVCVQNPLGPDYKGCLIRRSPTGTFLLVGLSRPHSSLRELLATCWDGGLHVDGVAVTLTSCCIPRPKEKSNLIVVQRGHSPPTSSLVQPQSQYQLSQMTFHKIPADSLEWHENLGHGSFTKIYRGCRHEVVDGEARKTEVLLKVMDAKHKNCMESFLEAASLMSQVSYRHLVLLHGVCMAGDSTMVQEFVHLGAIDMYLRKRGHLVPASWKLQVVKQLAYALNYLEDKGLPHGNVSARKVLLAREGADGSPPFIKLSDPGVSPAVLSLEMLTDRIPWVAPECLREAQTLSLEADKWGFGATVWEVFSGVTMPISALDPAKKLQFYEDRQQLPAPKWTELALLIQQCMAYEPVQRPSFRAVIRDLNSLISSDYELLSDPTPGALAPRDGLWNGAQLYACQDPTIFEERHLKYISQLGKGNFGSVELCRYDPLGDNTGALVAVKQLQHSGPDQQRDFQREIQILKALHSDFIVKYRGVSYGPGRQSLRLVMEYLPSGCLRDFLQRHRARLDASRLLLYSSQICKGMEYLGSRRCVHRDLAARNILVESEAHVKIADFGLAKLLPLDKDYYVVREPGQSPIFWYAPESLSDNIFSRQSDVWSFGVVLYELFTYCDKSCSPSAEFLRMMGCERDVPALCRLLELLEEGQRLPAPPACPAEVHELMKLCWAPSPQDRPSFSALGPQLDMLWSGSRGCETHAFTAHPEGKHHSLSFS
Briefly: Selectivity interaction (Kinase panel (Z-LYTE Assay)) EUB0001632a JAK3. As to conditions: at 10 µM.

For test [2], the target named is CDK9/cyclin T1 (Homo sapiens) (UniProt O60563+P50750). Briefly: Selectivity interaction (Adapta Assay) EUB0001632a CDK9. The test is classed as protein-complex assay. As to conditions: at 10 µM.
Test [3] addresses Non-receptor tyrosine-protein kinase TYK2 (Homo sapiens, UniProt P29597). In words: Selectivity interaction (Kinase panel (33PanQinase(R) Activity Assay)) EUB0000877a TYK2.
Test [4] concerns the target T2, Activin receptor type-1B (Homo sapiens) (UniProt P36896).
T2 sequence (whole entry): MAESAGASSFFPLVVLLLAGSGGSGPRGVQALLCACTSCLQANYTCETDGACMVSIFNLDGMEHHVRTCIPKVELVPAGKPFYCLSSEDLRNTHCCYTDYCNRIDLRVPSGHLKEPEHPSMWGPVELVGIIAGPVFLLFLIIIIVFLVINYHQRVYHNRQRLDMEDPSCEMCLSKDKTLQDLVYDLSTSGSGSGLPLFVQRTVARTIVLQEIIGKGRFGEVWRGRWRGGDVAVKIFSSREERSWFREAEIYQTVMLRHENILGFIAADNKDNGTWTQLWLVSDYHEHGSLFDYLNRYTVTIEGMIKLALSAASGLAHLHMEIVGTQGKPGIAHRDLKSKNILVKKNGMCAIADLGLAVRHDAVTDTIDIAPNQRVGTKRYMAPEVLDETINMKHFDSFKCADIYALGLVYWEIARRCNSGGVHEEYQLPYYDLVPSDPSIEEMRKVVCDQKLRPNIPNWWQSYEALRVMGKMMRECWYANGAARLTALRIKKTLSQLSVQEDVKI
Briefly: Selectivity interaction (KinomeScan (DiscoverX)) EUB0001049a ACVR1B. As to conditions: at 1 µM.

The target of test [5] is T3, Serine/threonine-protein kinase BRSK2 (Homo sapiens) (UniProt Q8IWQ3).
T3 sequence (whole entry): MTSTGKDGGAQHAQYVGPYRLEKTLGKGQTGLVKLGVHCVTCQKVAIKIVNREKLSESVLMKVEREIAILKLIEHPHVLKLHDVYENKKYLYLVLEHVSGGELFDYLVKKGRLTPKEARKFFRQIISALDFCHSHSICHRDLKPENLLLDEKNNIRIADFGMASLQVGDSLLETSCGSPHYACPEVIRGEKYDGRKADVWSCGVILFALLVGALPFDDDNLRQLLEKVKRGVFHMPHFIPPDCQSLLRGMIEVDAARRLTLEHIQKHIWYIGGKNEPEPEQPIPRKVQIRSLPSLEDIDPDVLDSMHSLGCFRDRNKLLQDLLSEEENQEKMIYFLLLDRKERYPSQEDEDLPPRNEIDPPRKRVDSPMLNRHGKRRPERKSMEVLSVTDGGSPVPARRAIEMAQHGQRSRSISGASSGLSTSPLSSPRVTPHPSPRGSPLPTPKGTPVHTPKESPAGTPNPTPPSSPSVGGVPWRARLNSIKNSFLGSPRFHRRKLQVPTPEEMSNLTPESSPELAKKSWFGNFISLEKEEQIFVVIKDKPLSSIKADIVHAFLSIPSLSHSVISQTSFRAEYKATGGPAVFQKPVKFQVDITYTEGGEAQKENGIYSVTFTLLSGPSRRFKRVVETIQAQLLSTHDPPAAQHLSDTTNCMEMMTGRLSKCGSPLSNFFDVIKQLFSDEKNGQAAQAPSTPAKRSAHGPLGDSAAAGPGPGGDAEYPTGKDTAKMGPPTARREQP
Briefly: Selectivity interaction (KinomeScan (DiscoverX)) EUB0001049a BRSK2. The note with it: at 1 µM.

The target of test [6] is T4, Dual specificity mitogen-activated protein kinase kinase 4 (Homo sapiens) (UniProt P45985).
T4 sequence (whole entry): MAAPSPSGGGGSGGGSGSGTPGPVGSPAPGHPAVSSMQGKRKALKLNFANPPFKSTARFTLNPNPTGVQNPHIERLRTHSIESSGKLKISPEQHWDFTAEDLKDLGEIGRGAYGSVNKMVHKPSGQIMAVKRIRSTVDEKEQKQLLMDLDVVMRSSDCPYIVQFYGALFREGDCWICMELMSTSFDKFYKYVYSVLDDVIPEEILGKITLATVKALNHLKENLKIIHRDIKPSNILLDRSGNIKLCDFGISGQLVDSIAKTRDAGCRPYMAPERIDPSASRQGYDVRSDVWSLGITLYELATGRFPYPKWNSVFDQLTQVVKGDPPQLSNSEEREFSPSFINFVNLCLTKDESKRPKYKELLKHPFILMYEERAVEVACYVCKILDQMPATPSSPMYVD
Briefly: Selectivity interaction (KinomeScan (DiscoverX)) EUB0001049a MAP2K4. The note with it: at 1 µM.

Chain of Non-receptor tyrosine-protein kinase TYK2 (P29597 whole entry): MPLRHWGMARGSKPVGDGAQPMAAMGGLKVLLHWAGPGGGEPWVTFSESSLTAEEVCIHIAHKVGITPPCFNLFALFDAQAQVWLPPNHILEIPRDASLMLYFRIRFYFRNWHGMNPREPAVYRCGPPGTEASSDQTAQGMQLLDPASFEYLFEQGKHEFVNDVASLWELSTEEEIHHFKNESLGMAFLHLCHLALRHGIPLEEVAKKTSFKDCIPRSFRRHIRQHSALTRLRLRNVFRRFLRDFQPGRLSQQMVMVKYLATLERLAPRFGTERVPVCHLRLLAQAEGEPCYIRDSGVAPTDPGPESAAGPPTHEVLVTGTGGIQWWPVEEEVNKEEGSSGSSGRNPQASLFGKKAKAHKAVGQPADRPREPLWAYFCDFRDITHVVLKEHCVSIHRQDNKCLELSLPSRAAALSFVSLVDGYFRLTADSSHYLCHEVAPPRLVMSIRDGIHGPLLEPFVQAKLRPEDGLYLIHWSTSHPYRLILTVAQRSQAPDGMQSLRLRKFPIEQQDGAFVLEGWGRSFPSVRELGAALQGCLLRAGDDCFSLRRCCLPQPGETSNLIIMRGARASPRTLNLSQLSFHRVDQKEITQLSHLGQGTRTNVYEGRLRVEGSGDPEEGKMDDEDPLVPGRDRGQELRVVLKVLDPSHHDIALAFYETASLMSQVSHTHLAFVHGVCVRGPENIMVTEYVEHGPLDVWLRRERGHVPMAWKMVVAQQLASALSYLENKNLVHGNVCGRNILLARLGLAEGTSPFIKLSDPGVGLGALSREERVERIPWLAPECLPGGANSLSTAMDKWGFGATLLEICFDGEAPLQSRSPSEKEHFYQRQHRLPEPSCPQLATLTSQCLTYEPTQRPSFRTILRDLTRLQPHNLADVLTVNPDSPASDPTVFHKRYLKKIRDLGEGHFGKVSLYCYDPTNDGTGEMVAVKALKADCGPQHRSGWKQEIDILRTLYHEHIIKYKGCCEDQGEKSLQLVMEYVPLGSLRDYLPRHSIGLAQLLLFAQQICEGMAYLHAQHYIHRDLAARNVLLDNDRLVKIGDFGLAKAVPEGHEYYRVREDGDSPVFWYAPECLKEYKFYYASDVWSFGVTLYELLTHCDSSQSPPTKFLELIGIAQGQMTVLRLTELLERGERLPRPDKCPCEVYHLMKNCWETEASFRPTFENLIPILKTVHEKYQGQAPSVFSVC

In the case of `Cn1cc(-n2cnc3c(NCc4nc5cc(Cl)c(Cl)cc5[nH]4)nc(N4CCOCC4)nc32)cn1`, the % of control in test [1] was 16.9%. This compound also came in with a % of inhibition in test [2] of 63.9%.

A word on the IC50: it is the midpoint of a concentration-inhibition curve. A low value points to greater potency in that assay. Consider `CCC(=O)N1CC[C@H](Nc2ncnc3c2CN(c2cnc(OC)c(C(F)(F)F)c2)CC3)C1` [LENIOLISIB], for which the IC50 in test [3] was more than 10 µM.

Consider `COc1cc(Nc2nc(C)cc(-c3cnn4nc(OC)ccc34)n2)cc(C(F)(F)F)c1`, for which the % of control worked out at 100% in test [4], 94% in test [5] and 74% in test [6].
